The values below come from BindingDB's records for doi:10.1021/jm00081a005 (University of Wisconsin-Madison, 1992).

The Ki is a dissociation constant, usually derived from enzyme kinetics or from competition with a known ligand. A lower Ki goes with a stronger hold on the target.

The experiment is described as follows: Compound was tested for binding affinity towards cytosolic aminopeptidase.

In turn, `CC(=O)[C@@H](N)CC(C)C` showed an inhibition constant (Ki) greater than 600 µM.
